Experimental data reported in US10405547B2, “Substituted cyclic amides as herbicides” (FMC Corporation, priority 2015, dated 2019).

Tests used:
Format in all cases: in vivo
[1] = tested on: blackgrass (Alopecurus myosuroides); assay: Test A postemergence, blackgrass; conditions: visual injury, 0 to 100 scale (0 no effect, 100 complete control), approximately 10 days
Outline: (§1)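 Ratings use a 0–100 scale, where 0 means no effect and 100 means complete control, and come from visual comparison with untreated plants roughly 10 days after treatment. Compounds were applied in a surfactant-containing, non-phytotoxic solvent, either to soil after seeding or to foliage of small seedlings.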

[2] = tested on: sedge, umbrella (small-flower umbrella sedge, Cyperus difformis); assay: Test B flooded paddy test, umbrella sedge; conditions: 250 g ai/ha, applied to paddy water, visual rating after 13 to 15 days, scale 0 (no effect) to 100 (complete control)
Outline: (§2)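 Flooded 3 cm over soil; compound into paddy water; depth kept constant. Greenhouse 13–15 d.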

[3] = tested on: barnyardgrass (Echinochloa crus-galli); assay: Test B flooded paddy test, barnyardgrass; conditions: 250 g ai/ha, applied to paddy water, visual rating after 13 to 15 days, scale 0 (no effect) to 100 (complete control)
Outline: as §2

[4] = tested on: ryegrass, Italian (Lolium multiflorum); assay: Test A preemergence, Italian ryegrass; conditions: 0 to 100 scale (0 no effect, 100 complete control)
Outline: as §1

kochia (Kochia scoparia) [5] = assay: Test A postemergence, kochia; conditions: visual injury, 0 to 100 scale (0 no effect, 100 complete control), approximately 10 days
Outline: as §1

rice (Oryza sativa) = assay: Test B flooded paddy test, rice; conditions: 250 g ai/ha, applied to paddy water, visual rating after 13 to 15 days, scale 0 (no effect) to 100 (complete control)
Outline: as §2

corn (Zea mays) = assay: Test A postemergence, corn; conditions: visual injury, 0 to 100 scale (0 no effect, 100 complete control), approximately 10 days
Outline: as §1

[6] = tested on: foxtail, giant (Setaria faberii); assay: Test A postemergence, giant foxtail; conditions: visual injury, 0 to 100 scale (0 no effect, 100 complete control), approximately 10 days
Outline: as §1

[7] = tested on: foxtail, giant (Setaria faberii); assay: Test A preemergence, giant foxtail; conditions: 0 to 100 scale (0 no effect, 100 complete control)
Outline: as §1

[8] = tested on: ryegrass, Italian (Lolium multiflorum); assay: Test A postemergence, Italian ryegrass; conditions: visual injury, 0 to 100 scale (0 no effect, 100 complete control), approximately 10 days
Outline: as §1

[9] = tested on: pigweed (Amaranthus retroflexus); assay: Test A postemergence, pigweed; conditions: visual injury, 0 to 100 scale (0 no effect, 100 complete control), approximately 10 days
Outline: as §1

[10] = tested on: galium (catchweed bedstraw, Galium aparine); assay: Test A postemergence, galium; conditions: visual injury, 0 to 100 scale (0 no effect, 100 complete control), approximately 10 days
Outline: as §1

[11] = tested on: ducksalad (Heteranthera limosa); assay: Test B flooded paddy test, ducksalad; conditions: 250 g ai/ha, applied to paddy water, visual rating after 13 to 15 days, scale 0 (no effect) to 100 (complete control)
Outline: as §2

[12] = tested on: pigweed (Amaranthus retroflexus); assay: Test A preemergence, pigweed; conditions: 0 to 100 scale (0 no effect, 100 complete control)
Outline: as §1

[13] = tested on: ragweed (common ragweed, Ambrosia elatior); assay: Test A postemergence, ragweed; conditions: visual injury, 0 to 100 scale (0 no effect, 100 complete control), approximately 10 days
Outline: as §1

[14] = tested on: barnyardgrass (Echinochloa crus-galli); assay: Test A preemergence, barnyardgrass; conditions: 0 to 100 scale (0 no effect, 100 complete control)
Outline: as §1

[15] = tested on: wheat (Triticum aestivum); assay: Test A postemergence, wheat; conditions: visual injury, 0 to 100 scale (0 no effect, 100 complete control), approximately 10 days
Outline: as §1

[16] = tested on: ragweed (common ragweed, Ambrosia elatior); assay: Test A preemergence, ragweed; conditions: 0 to 100 scale (0 no effect, 100 complete control)
Outline: as §1

kochia (Kochia scoparia) [17] = assay: Test A preemergence, kochia; conditions: 0 to 100 scale (0 no effect, 100 complete control)
Outline: as §1

[18] = tested on: barnyardgrass (Echinochloa crus-galli); assay: Test A postemergence, barnyardgrass; conditions: visual injury, 0 to 100 scale (0 no effect, 100 complete control), approximately 10 days
Outline: as §1

| Compound | Plant response rating, Blackgrass ([1]; 125 g ai/ha) | Plant response rating, Blackgrass ([1]; 500 g ai/ha) | Plant response rating, Sedge, Umbrella (Flood) [2] | Plant response rating, Barnyardgrass (Flood) [3] | Plant response rating, Ryegrass, Italian ([4]; 125 g ai/ha) | Plant response rating, Ryegrass, Italian ([4]; 500 g ai/ha) | Plant response rating, Kochia (kochia (Kochia scoparia) [5]; 125 g ai/ha) | Plant response rating, Kochia (kochia (Kochia scoparia) [5]; 500 g ai/ha) | Plant response rating, Rice (Flood) (rice (Oryza sativa)) | Plant response rating, Corn (corn (Zea mays); 125 g ai/ha) | Plant response rating, Corn (corn (Zea mays); 500 g ai/ha) | Plant response rating, Foxtail, Giant ([6]; 125 g ai/ha) | Plant response rating, Foxtail, Giant ([6]; 500 g ai/ha) | Plant response rating, Foxtail, Giant ([7]; 125 g ai/ha) | Plant response rating, Foxtail, Giant ([7]; 500 g ai/ha) | Plant response rating, Ryegrass, Italian ([8]; 125 g ai/ha) | Plant response rating, Ryegrass, Italian ([8]; 500 g ai/ha) | Plant response rating, Pigweed ([9]; 125 g ai/ha) | Plant response rating, Pigweed ([9]; 500 g ai/ha) | Plant response rating, Galium ([10]; 125 g ai/ha) | other results |
| --- | --- | --- | --- | --- | --- | --- | --- | --- | --- | --- | --- | --- | --- | --- | --- | --- | --- | --- | --- | --- | --- |
| O=C1NCC(c2cccc(OCC3OCCO3)c2)C1C(=O)Nc1cccc(F)c1F (stereo not drawn) [Compound 7] | 0 | 40 | 0 | 0 | 30 | 30 | 0 | 0 | 0 | 0 | 20 | 20 | 70 | 90 | 90 | 0 | 20 | 0 | 0 | 20 | Plant response rating, Galium ([10]; 500 g ai/ha): 40; Plant response rating, Ducksalad (Flood) [11]: 75; Plant response rating, Pigweed ([12]; 125 g ai/ha): 60; Plant response rating, Pigweed ([12]; 500 g ai/ha): 60; Plant response rating, Ragweed ([13]; 125 g ai/ha): 0; Plant response rating, Ragweed ([13]; 500 g ai/ha): 20; Plant response rating, Barnyardgrass ([14]; 125 g ai/ha): 60; Plant response rating, Barnyardgrass ([14]; 500 g ai/ha): 90; Plant response rating, Wheat ([15]; 125 g ai/ha): 0; Plant response rating, Wheat ([15]; 500 g ai/ha): 40; Plant response rating, Ragweed ([16]; 125 g ai/ha): 0; Plant response rating, Ragweed ([16]; 500 g ai/ha): 0; Plant response rating, Kochia (kochia (Kochia scoparia) [17]; 125 g ai/ha): 0; Plant response rating, Kochia (kochia (Kochia scoparia) [17]; 500 g ai/ha): 0; Plant response rating, Barnyardgrass ([18]; 125 g ai/ha): 40; Plant response rating, Barnyardgrass ([18]; 500 g ai/ha): 70 |
| O=C1NCC(c2cccc(OCC3OCCO3)c2)C1C(=O)Nc1ccccc1F (stereo not drawn) [Compound 8] | 0 | 20 | 0 | 0 | 0 | 0 | 0 | 0 | 0 | 0 | 20 | 0 | 70 | 80 | 90 | 0 | 0 | 0 | 0 | 0 | Plant response rating, Galium ([10]; 500 g ai/ha): 0; Plant response rating, Ducksalad (Flood) [11]: 35; Plant response rating, Pigweed ([12]; 125 g ai/ha): 0; Plant response rating, Pigweed ([12]; 500 g ai/ha): 0; Plant response rating, Ragweed ([13]; 125 g ai/ha): 0; Plant response rating, Ragweed ([13]; 500 g ai/ha): 10; Plant response rating, Barnyardgrass ([14]; 125 g ai/ha): 50; Plant response rating, Barnyardgrass ([14]; 500 g ai/ha): 80; Plant response rating, Wheat ([15]; 125 g ai/ha): 0; Plant response rating, Wheat ([15]; 500 g ai/ha): 0; Plant response rating, Ragweed ([16]; 125 g ai/ha): 0; Plant response rating, Ragweed ([16]; 500 g ai/ha): 0; Plant response rating, Kochia (kochia (Kochia scoparia) [17]; 125 g ai/ha): 0; Plant response rating, Kochia (kochia (Kochia scoparia) [17]; 500 g ai/ha): 0; Plant response rating, Barnyardgrass ([18]; 125 g ai/ha): 0; Plant response rating, Barnyardgrass ([18]; 500 g ai/ha): 70 |
| O=C1NCC(c2cccc(OCc3ccco3)c2)C1C(=O)Nc1cccc(F)c1F (stereo not drawn) [Compound 9] | 0 | 0 | 30 | 0 | 0 | 0 | 0 | 0 | 0 | 0 | 20 | 0 | 50 | 10 | 70 | 0 | 0 | 0 | 0 | 0 | Plant response rating, Galium ([10]; 500 g ai/ha): 0; Plant response rating, Ducksalad (Flood) [11]: 30; Plant response rating, Pigweed ([12]; 125 g ai/ha): 0; Plant response rating, Pigweed ([12]; 500 g ai/ha): 0; Plant response rating, Ragweed ([13]; 125 g ai/ha): 0; Plant response rating, Ragweed ([13]; 500 g ai/ha): 0; Plant response rating, Barnyardgrass ([14]; 125 g ai/ha): 10; Plant response rating, Barnyardgrass ([14]; 500 g ai/ha): 70; Plant response rating, Wheat ([15]; 125 g ai/ha): 0; Plant response rating, Wheat ([15]; 500 g ai/ha): 0; Plant response rating, Ragweed ([16]; 125 g ai/ha): 0; Plant response rating, Ragweed ([16]; 500 g ai/ha): 0; Plant response rating, Kochia (kochia (Kochia scoparia) [17]; 125 g ai/ha): 0; Plant response rating, Kochia (kochia (Kochia scoparia) [17]; 500 g ai/ha): 0; Plant response rating, Barnyardgrass ([18]; 125 g ai/ha): 30; Plant response rating, Barnyardgrass ([18]; 500 g ai/ha): 60 |
| O=C1NCC(c2cccc(OCc3ccco3)c2)C1C(=O)Nc1ccccc1F (stereo not drawn) [Compound 10] | 0 | 0 | 40 | 0 | 0 | 0 | 0 | 0 | 0 | 0 | 0 | 0 | 30 | 0 | 0 | 0 | 0 | 0 | 0 | 0 | Plant response rating, Galium ([10]; 500 g ai/ha): 0; Plant response rating, Ducksalad (Flood) [11]: 60; Plant response rating, Pigweed ([12]; 125 g ai/ha): 0; Plant response rating, Pigweed ([12]; 500 g ai/ha): 0; Plant response rating, Ragweed ([13]; 125 g ai/ha): 0; Plant response rating, Ragweed ([13]; 500 g ai/ha): 0; Plant response rating, Barnyardgrass ([14]; 125 g ai/ha): 0; Plant response rating, Barnyardgrass ([14]; 500 g ai/ha): 0; Plant response rating, Wheat ([15]; 125 g ai/ha): 0; Plant response rating, Wheat ([15]; 500 g ai/ha): 0; Plant response rating, Ragweed ([16]; 125 g ai/ha): 0; Plant response rating, Ragweed ([16]; 500 g ai/ha): 0; Plant response rating, Kochia (kochia (Kochia scoparia) [17]; 125 g ai/ha): 0; Plant response rating, Kochia (kochia (Kochia scoparia) [17]; 500 g ai/ha): 0; Plant response rating, Barnyardgrass ([18]; 125 g ai/ha): 10; Plant response rating, Barnyardgrass ([18]; 500 g ai/ha): 60 |
| O=C1NCC(c2cccc(OCC3CC3)c2)C1C(=O)Nc1ccccc1F (stereo not drawn) [Compound 11] | 0 | 40 | 0 | 0 | 0 | 20 | 0 | 0 | 0 | 0 | 20 | 50 | 90 | 80 | 90 | 0 | 20 | 0 | 20 | 0 | Plant response rating, Galium ([10]; 500 g ai/ha): 30; Plant response rating, Ducksalad (Flood) [11]: 0; Plant response rating, Pigweed ([12]; 125 g ai/ha): 0; Plant response rating, Pigweed ([12]; 500 g ai/ha): 30; Plant response rating, Ragweed ([13]; 125 g ai/ha): 30; Plant response rating, Ragweed ([13]; 500 g ai/ha): 40; Plant response rating, Barnyardgrass ([14]; 125 g ai/ha): 60; Plant response rating, Barnyardgrass ([14]; 500 g ai/ha): 90; Plant response rating, Wheat ([15]; 125 g ai/ha): 0; Plant response rating, Wheat ([15]; 500 g ai/ha): 20; Plant response rating, Ragweed ([16]; 125 g ai/ha): 0; Plant response rating, Ragweed ([16]; 500 g ai/ha): 0; Plant response rating, Kochia (kochia (Kochia scoparia) [17]; 125 g ai/ha): 0; Plant response rating, Kochia (kochia (Kochia scoparia) [17]; 500 g ai/ha): 40; Plant response rating, Barnyardgrass ([18]; 125 g ai/ha): 50; Plant response rating, Barnyardgrass ([18]; 500 g ai/ha): 90 |
